# Experimental data published in paper PMC10368370, “Development of o-aminobenzamide salt derivatives for improving water solubility and anti-undifferentiated gastric cancer” (Frontiers in Pharmacology, 2023).
# Entries after “also recorded” stand apart in the source; their conditions may differ.
# Key:
# HCC-1937 = assay: MTT cytotoxicity / anti-proliferation assay; format: cell-based; conditions: HCC-1937, MTT, 72 h; read-out: IC50, cancer cell viability
# MCF-7 = assay: MTT cytotoxicity / anti-proliferation assay; format: cell-based; conditions: MCF-7, MTT, 72 h; read-out: IC50, cancer cell viability
# [1] = In vivo acute toxicity study; parameters: species or system Kunming mice; conditions: for LD50 at 14 days: both sexes, Kunming, mouse, in vivo
# Procedure: We investigated the toxicity of F8·2HCl when administered in three different ways, and F8·2HCl was all dissolved with normal saline, and the concentration of intravenous and intraperitoneal injection was 8 mg/mL, and the concentration of intragastric administration was 10 mg/mL. Ninety Kunming mice (45 males and 45 females) weighing 18–22 g were divided into 15 groups (n = 6). The doses of F8·2HCl injected by tail vein were 40 mg/kg, 60 mg/kg, 90 mg/kg, 110 mg/kg, 135 mg/kg, 200 mg/kg, 300 mg/kg, 400 mg/kg and 500 mg/kg, respectively. Intraperitoneal injection of different doses of F8·2HCl were 200 mg/kg, 250 mg/kg, 300 mg/kg, 360 mg/kg and 500 mg/kg, respectively. We also added a dose of 600 mg/kg administered by gavage. All drugs administered were dissolved in normal saline. Toxicity was monitored for 14 days. During the monitoring period, the status of mice was observed and their body weight was recorded.
# To evaluate the safety of F8·2HCl in vivo, acute toxicity studies were performed. First, six Kunming mice (half male and half female) were gavage with F8·2HCl at a single dose of 600 mg/kg.
# HuH7 = assay: MTT cytotoxicity / anti-proliferation assay; format: cell-based; conditions: 72 h, read-out: IC50, cancer cell viability
# HCT-116 = assay: MTT cytotoxicity / anti-proliferation assay; format: cell-based; conditions: HCT-116, MTT, 72 h; read-out: IC50, cancer cell viability
# [2] = Screening of F8 related organic salts (crystallinity, hygroscopicity, solubility, stability, irritability); format: physicochemical; conditions: salt screening
# From the text: The selection of salt form is a key step to the success of drug development, which requires a well-designed screening strategy to find the salt form that meets the target performance. Although there are many kinds of counter ions, the commonly used ones are very limited.
# SK-Hep-1 = assay: MTT cytotoxicity / anti-proliferation assay; format: cell-based; conditions: SK-Hep-1, MTT, 72 h; read-out: IC50, cancer cell viability
# MDA-MB-468 = assay: MTT cytotoxicity / anti-proliferation assay; format: cell-based; conditions: MDA-MB-468, MTT, 72 h; read-out: IC50, cancer cell viability
smiles,measurement,setting,value
O=C(NCc1ccc(NC(=O)c2cc(F)ccc2N2CCCC2)cc1)OCc1cccnc1 [F8·2HCl],IC50,HCC-1937,48.81 ± 0.18 µM
same,IC50,MCF-7,47.69 ± 0.15 µM
same,"HE staining of heart, liver, spleen, lung, kidney",[1]; 200 mg/kg intraperitoneal injection,intact without any lesions
same,"HE staining of heart, liver, spleen, lung, kidney",[1]; 600 mg/kg oral administration,intact without any lesions
same,LD50 at 14 days,"[1]; ip, intraperitoneal injection, KM mice, 14 days",303 mg/kg
same,LD50 at 14 days,"[1]; intravenous injection, KM mice, 14 days",153 mg/kg
same,survival and abnormal reactions,"[1]; single dose 600 mg/kg by gavage, KM mice, 14 days",All the mice survived 14 days without any abnormal reactions
same,IC50,HuH7,10.9 ± 0.97 µM
same,IC50,HCT-116,4.02 ± 0.28 µM
same,Crystalline,[2],crystallization
same,Hygroscopic,[2],Almost no moisture absorption
same,Stability,[2],"remain stable under high temperature (80°C), acid, alkaline, oxidation and reduction conditions; also recorded: Keep stable in extreme environment"
same,Solubility,[2]; water,Soluble
same,IC50,SK-Hep-1,9.37 ± 0.91 µM
same,IC50,MDA-MB-468,1.42 ± 0.19 µM
